Here are results for four compounds from ChEMBL document CHEMBL1151200, “Comparison of fascaplysin and related alkaloids: a study of structures, cytotoxicities, and sources” (J Nat Prod, 2004).

Each structure is given as a SMILES string.

A word on the IC50: it is the concentration needed to halve the response being measured. A lower IC50 goes with inhibition by little substance.

Data set [1] deals with L1210. The experiment in a line: Cytotoxicity against mouse L1210 cells at 84 ug/disk by disk diffusion soft agar colony formation assay. Format: functional.
For data set [2], the system named is MC-38. Nature of the data set: Cytotoxicity against mouse C38 cells at 84 ug/disk by disk diffusion soft agar colony formation assay. Format: functional.
Data set [3] can be described thus: Cytotoxicity against mouse CFU-GM cells at 84 ug/disk by disk diffusion soft agar colony formation assay. Format: cell-based.
Data set [4] in a line: Cytotoxicity against human H116 cells at 84 ug/disk by disk diffusion soft agar colony formation assay. Format: functional. In general terms: A growth-free zone around the sample is the usual read-out of agar diffusion tests.
Data set [5] is described as follows: Cytotoxicity against human H125 cells at 84 ug/disk by disk diffusion soft agar colony formation assay. Format: functional.
Data set [6] relates to CCRF-CEM. Nature of the data set: Cytotoxicity against human CEM cells at 84 ug/disk by disk diffusion soft agar colony formation assay. Format: functional.
Another data set concerns A549. The experiment in a line: Antitumor activity against human A549/ATCC cells. Format: functional, cell-based.
For the next data set, the system named is EKVX. Nature of the data set: Antitumor activity against human EKVX cells. Format: functional, cell-based.
Another data set deals with HOP-62. Nature of the data set: Antitumor activity against human HOP62 cells. Format: functional, cell-based.
The test system of a further data set is HOP-92. Nature of the data set: Antitumor activity against human HOP92 cells. Format: functional, cell-based.
The next data set deals with NCI-H226. Nature of the data set: Antitumor activity against human NCI-H226 cells. Format: functional, cell-based.
For another data set, the system named is NCI-H23. The experiment in a line: Antitumor activity against human NCI-H23 cells. Format: functional, cell-based.
A further data set relates to NCI-H322M. The experiment in a line: Antitumor activity against human NCI-H322M cells. Format: functional, cell-based.
A further data set has as its system NCI-H460. The experiment in a line: Antitumor activity against human NCI-H460 cells. Format: functional, cell-based.
A further data set has as its system NCI-H522. The experiment in a line: Antitumor activity against human NCI-H522 cells. Format: functional, cell-based.
The test system of another data set is COLO 205. Nature of the data set: Antitumor activity against human COLO205 cells. Format: functional, cell-based.
A further data set has as its system HCC 2998. Nature of the data set: Antitumor activity against human HCC2998 cells. Format: functional, cell-based.
The next data set concerns HCT-116. The experiment in a line: Antitumor activity against human HCT116 cells. Format: functional, cell-based.
A further data set relates to HCT-15. The experiment in a line: Antitumor activity against human HCT15 cells. Format: functional, cell-based.
The next data set has as its system HT-29. The experiment in a line: Antitumor activity against human HT-29 cells. Format: functional, cell-based.
Another data set deals with KM12. Nature of the data set: Antitumor activity against human KM12 cells. Format: functional, cell-based.
The subject of a further data set is SW-620. Nature of the data set: Antitumor activity against human SW620 cells. Format: functional, cell-based.
For the next data set, the system named is SF-268. The experiment in a line: Antitumor activity against human SF268 cells. Format: functional, cell-based.
A further data set concerns SF-295. Nature of the data set: Antitumor activity against human SF295 cells. Format: functional, cell-based.
The test system of another data set is SF-539. Nature of the data set: Antitumor activity against human SF539 cells. Format: functional, cell-based.
Another data set deals with SNB-19. The experiment in a line: Antitumor activity against human SNB19 cells. Format: functional, cell-based.
A further data set deals with SNB-75. Nature of the data set: Antitumor activity against human SNB75 cells. Format: functional, cell-based.
A further data set deals with U-251. Nature of the data set: Antitumor activity against human U251 cells. Format: functional, cell-based.
The test system of the next data set is LOX IMVI. The experiment in a line: Antitumor activity against human LOXIMVI cells. Format: functional, cell-based.
Another data set has as its system Malme-3M. The experiment in a line: Antitumor activity against human MALME-3M cells. Format: functional, cell-based.
The next data set has as its system M14. The experiment in a line: Antitumor activity against human M14 cells. Format: functional, cell-based.
A further data set relates to SK-MEL-28. Nature of the data set: Antitumor activity against human SK-MEL-28 cells. Format: functional, cell-based.
A further data set deals with SK-MEL-5. The experiment in a line: Antitumor activity against human SK-MEL-5 cells. Format: functional, cell-based.
The subject of the next data set is UACC-257. Nature of the data set: Antitumor activity against human UACC257 cells. Format: functional, cell-based.
The subject of the next data set is UACC-62. The experiment in a line: Antitumor activity against human UACC62 cells. Format: functional, cell-based.
The test system of the next data set is IGROV-1. The experiment in a line: Antitumor activity against human IGROV1 cells. Format: functional, cell-based.
The next data set deals with OVCAR-3. The experiment in a line: Antitumor activity against human OVCAR-3 cells. Format: functional, cell-based.
In a further data set the test system is OVCAR-4. The experiment in a line: Antitumor activity against human OVCAR4 cells. Format: functional, cell-based.
The next data set deals with OVCAR-5. The experiment in a line: Antitumor activity against human OVCAR5 cells. Format: functional, cell-based.
The subject of another data set is OVCAR-8. The experiment in a line: Antitumor activity against human OVCAR8 cells. Format: functional, cell-based.
In another data set the test system is SK-OV-3. The experiment in a line: Antitumor activity against human SKOV3 cells. Format: functional, cell-based.
Data set [7] can be described thus: Antitumor activity against human 786-O cells. Format: functional, cell-based. Conditions: 786-0.
Another data set has as its system ACHN. Nature of the data set: Antitumor activity against human ACHN cells. Format: functional, cell-based.
For the next data set, the system named is CAKI-1. The experiment in a line: Antitumor activity against human Caki1 cells. Format: functional, cell-based.
The subject of another data set is RXF 393. Nature of the data set: Antitumor activity against human RXF393 cells. Format: functional, cell-based.
The next data set deals with SN12C. The experiment in a line: Antitumor activity against human SN12C cells. Format: functional, cell-based.
The next data set deals with TK-10. The experiment in a line: Antitumor activity against human TK10 cells. Format: functional, cell-based.
Another data set concerns UO-31. The experiment in a line: Antitumor activity against human UO31 cells. Format: functional, cell-based.
In the next data set the test system is PC-3. The experiment in a line: Antitumor activity against human PC3 cells. Format: functional, cell-based.
Another data set deals with DU-145. The experiment in a line: Antitumor activity against human DU145 cells. Format: functional, cell-based.
Data set [8] concerns MCF7. Nature of the data set: Antitumor activity against human MCF7 cells. Format: functional, cell-based.
For data set [9], the system named is MCF7. Nature of the data set: Antitumor activity against […] human MCF7 cells. Format: functional, cell-based.
A further data set has as its system MDA-MB-231. Nature of the data set: Antitumor activity against human MDA-MB-231 cells. Format: functional, cell-based.
Data set [10] can be described thus: Antitumor activity against human Hs 578T cells. Format: functional, cell-based.
In the next data set the test system is MDA-MB-435. The experiment in a line: Antitumor activity against human MDA-MB-435 cells. Format: functional, cell-based.
Another data set relates to MDA-N. The experiment in a line: Antitumor activity against human MDA-N cells. Format: functional, cell-based.
The subject of another data set is BT-549. Nature of the data set: Antitumor activity against human BT549 cells. Format: functional, cell-based.
Another data set deals with T47D. The experiment in a line: Antitumor activity against human T47D cells. Format: functional, cell-based.
Data set [11] has as its system CCRF-CEM. The experiment in a line: Antitumor activity against human CCRF-CEM cells. Format: functional, cell-based.
A further data set concerns HL-60(TB). Nature of the data set: Antitumor activity against human HL-60(TB) cells. Format: functional, cell-based.
For another data set, the system named is K562. The experiment in a line: Antitumor activity against human K562 cells. Format: functional, cell-based.
A further data set deals with MOLT-4. The experiment in a line: Antitumor activity against human MOLT4 cells. Format: functional, cell-based.
A further data set relates to RPMI-8226. Nature of the data set: Antitumor activity against human RPMI8226 cells. Format: functional, cell-based.
For another data set, the system named is SR. The experiment in a line: Antitumor activity against human SR cells. Format: functional, cell-based.
In data set [12] the test system is L1210. Nature of the data set: Cytotoxicity against mouse L1210 cells at 64 ug/disk by disk diffusion soft agar colony formation assay. Format: functional.
For data set [13], the system named is MC-38. Nature of the data set: Cytotoxicity against mouse C38 cells at 64 ug/disk by disk diffusion soft agar colony formation assay. Format: functional.
Data set [14] can be described thus: Cytotoxicity against human H116 cells at 64 ug/disk by disk diffusion soft agar colony formation assay. Format: functional.
A short description of data set [15]: Cytotoxicity against human H125 cells at 64 ug/disk by disk diffusion soft agar colony formation assay. Format: functional.
Data set [16] has as its system CCRF-CEM. Nature of the data set: Cytotoxicity against human CEM cells at 64 ug/disk by disk diffusion soft agar colony formation assay. Format: functional.

With `COC(=O)c1ccc(Br)cc1-[n+]1ccc2c(c1)[nH]c1cc(Br)ccc12.[Cl-]`, the Activity worked out at 450 Zone units with L1210 [1]; 350 Zone units in the data set with MC-38 [2]; 400 Zone units in data set [3]; 300 Zone units in [4]; 500 Zone units in [5]; 300 Zone units in the data set on CCRF-CEM [6].
As to `CC1=C(CC/C(C)=C/CC/C(C)=C/CCC(CC(=O)O)C(=O)[O-])C(C)(C)CCC1.O=C1c2ccccc2-[n+]2ccc3c([nH]c4ccccc43)c21` (centres undefined) [FASCAPLYSIN A], the IC50 in the data set on A549 stood at 7.6 µM; in the data set with EKVX, 5.2 µM; with HOP-62, 5.1 µM; in the data set with HOP-92 it was 1 µM; with NCI-H226 it was 8.3 µM; with NCI-H23, 5.1 µM. Further, the IC50 stood at 4.3 µM in the data set with NCI-H322M; 6.4 µM with NCI-H460; 6.3 µM in the data set on NCI-H522; 0.83 µM in the data set on COLO 205; 3.8 µM in the data set on HCC 2998; 1.6 µM in the data set with HCT-116. Besides, the IC50 with HCT-15 was found to be 5.8 µM; with HT-29 it was 1.4 µM; in the data set with KM12, 7.3 µM; with SW-620, 3.9 µM; in the data set with SF-268, 5.7 µM; in the data set on SF-295 it was 5.2 µM. In addition, the IC50 came to 2.2 µM in the data set on SF-539; 5.4 µM in the data set with SNB-19; 5.2 µM with SNB-75; 4.1 µM in the data set with U-251; 6.3 µM in the data set with LOX IMVI; 0.54 µM with Malme-3M. Further, the IC50 amounted to 4.2 µM in the data set with M14; 3.9 µM in the data set with SK-MEL-28; 0.53 µM with SK-MEL-5; 3.8 µM with UACC-257; 3.2 µM in the data set on UACC-62; 1.7 µM in the data set with IGROV-1. The IC50 amounted to 3.1 µM in the data set on OVCAR-3; 4.5 µM in the data set on OVCAR-4; 5.8 µM in the data set with OVCAR-5; 5.3 µM in the data set with OVCAR-8; 7.7 µM in the data set with SK-OV-3; 5.1 µM in data set [7]. Also, the IC50 is 5.5 µM in the data set on ACHN; 7.3 µM in the data set on CAKI-1; 3.5 µM in the data set with RXF 393; 3.2 µM in the data set on SN12C; above 10 µM in the data set with TK-10; 5.6 µM in the data set with UO-31. The IC50 was 5.4 µM in the data set on PC-3; 5.6 µM in the data set with DU-145; 5 µM in the data set on MCF7 [8]; above 10 µM with MCF7 [9]; 6.8 µM with MDA-MB-231; above 10 µM in data set [10]. Further, the IC50 was 0.57 µM in the data set on MDA-MB-435; 0.58 µM in the data set on MDA-N; 5.1 µM in the data set with BT-549; 6.6 µM in the data set with T47D; above 10 µM in the data set with CCRF-CEM [11]; above 10 µM with HL-60(TB). Further, the IC50 in the data set on K562, with MOLT-4, in the data set on RPMI-8226 and in the data set with SR was above 10 µM each time.
With `O=C(O)c1ccccc1-[n+]1ccc2c(c1)[nH]c1ccccc12.[Cl-]` [RETICULATATE], the Activity in the data set with L1210 [12] amounted to 650 Zone units; in the data set on MC-38 [13], 700 Zone units; in data set [14] it was 650 Zone units; in data set [15], 500 Zone units; with CCRF-CEM [16] it was 350 Zone units.
As for `Oc1ccccc1-[n+]1ccc2c(c1)[nH]c1ccccc12.[Cl-]` [RETICULATOL], the Activity is reported as 200 Zone units with L1210 [12]; 200 Zone units in the data set on MC-38 [13]; 100 Zone units in [14]; 400 Zone units in data set [15]; above 1000 Zone units in the data set with CCRF-CEM [16].
